Results as given in US12157882B2, “Lactobacillus plantarum strain ATG-K2, ATG-K6 or ATG-K8, and composition for preventing or treating vaginitis comprising same” (ATOGEN CO., LTD, priority 2018, dated 2024).

What was measured:
[1] = Bile salt hydrolase (BSH) activity on MRS agar with 0.5% sodium taurocholic acid; conditions: MRS agar with 0.5% (w/v) TDCA, anaerobic, 37° C., about 72 hr
Protocol: In order to confirm the presence or absence of bile salt hydrolase (BSH) activity as the function of each of the lactic-acid bacteria, an experiment was performed in accordance with the method described in Dashkevicz and Feighner (1989). Briefly, an agar medium was prepared by adding 0.5% (w/v) sodium taurocholic acid (TDCA, Sigma-Aldrich, Germany) to MRS.

[2] = system: Staphylococcus aureus KCTC1621 (SA); test: Disc test, clear zone; type: cell-based; conditions: 35 μl culture solution on 8 mm paper disc, disc diameter subtracted; average of four tests
Protocol: (§1) In order to confirm the antimicrobial functionality of K2, K6 and K8, the antimicrobial activity of lactic-acid bacteria K2, K6 and K8 against a total of seven types of infectious or opportunistic bacteria, including four types of gram-positive SA, LM, SM, and SS and three types of gram-negative EC, PA, and CS, was determined by measuring clear zones through a disc test. Seven types of bacteria cultured overnight in a BHI plate medium were each suspended in 1× phosphate-buffered saline (PBS) until OD600 of about 0.8 was obtained. Each suspension was absorbed with a sterile cotton swab, spread over an agar medium for an antimicrobial activity test for lactic-acid bacteria, in which BHI and MRS were mixed at a ratio of 1:1, and dried for about 3 min. Each 8 mm paper disc (Advantec, Japan) was attached to the dried test agar medium, and 35 μl of each of K2, K6, and K8 solutions cultured in an MRS broth for about 18 to 20 hr was inoculated to the paper disc, dried for about 3 min, cultured at 37° C. and observed. The size of the clear zone formed after culture was determined in a manner in which the diameter thereof was measured and was calculated after subtracting 8 mm, which is the diameter of the paper disc. The unit for the diameter of the clear zone, which is each numerical value in Table 4, is mm, and each abbreviation is as follows: Staphylococcus aureus KCTC1621 (SA), Listeria monocytogenes KCTC3569 (LM), Streptococcus mutans KCTC3065 (SM), Streptococcus salivarius ATG-P1 (SS), Escherichia coli KCTC1682 (EC), Pseudomonas aeruginosa KCTC2004 (PA), Cronobacter sakazakii KCTC2949 (CS).

[3] = system: Cronobacter sakazakii KCTC2949 (CS); test: Disc test, clear zone; type: cell-based; conditions: 35 μl culture solution on 8 mm paper disc, disc diameter subtracted; average of four tests
Protocol: as §1

[4] = system: Escherichia coli KCTC1682 (EC); test: Disc test, clear zone; type: cell-based; conditions: 35 μl culture solution on 8 mm paper disc, disc diameter subtracted; average of four tests
Protocol: as §1

[5] = system: Listeria monocytogenes KCTC3569 (LM); test: Disc test, clear zone; type: cell-based; conditions: 35 μl culture solution on 8 mm paper disc, disc diameter subtracted; average of four tests
Protocol: as §1

[6] = system: Streptococcus mutans KCTC3065 (SM); test: Disc test, clear zone; type: cell-based; conditions: 35 μl culture solution on 8 mm paper disc, disc diameter subtracted; average of four tests
Protocol: as §1

[7] = system: Streptococcus salivarius ATG-P1 (SS); test: Disc test, clear zone; type: cell-based; conditions: 35 μl culture solution on 8 mm paper disc, disc diameter subtracted; average of four tests
Protocol: as §1

[8] = system: Pseudomonas aeruginosa KCTC2004 (PA); test: Disc test, clear zone; type: cell-based; conditions: 35 μl culture solution on 8 mm paper disc, disc diameter subtracted; average of four tests
Protocol: as §1

[9] = system: Candida albicans KCTC7678 (CA); test: Disinfection power through coculture; type: cell-based; conditions: for disinfection power on CA: coculture 1:1, at 24 hr; for CA in coculture: coculture 1:1, at 48 hr
Protocol: (§2) The anti-vaginitis effect of the lactic-acid bacteria of the present disclosure was tested for disinfection power on the vaginitis pathogen through coculture. In the anti-CA experiment, CA at a concentration of about 2.5×10^6 CFU/ml and each of lactic-acid bacteria at a concentration of about 2.5×10^6 CFU/ml were mixed at a ratio of 1:1, and coculture thereof was carried out in a culture medium of YM and MRS mixed at 1:1. In the anti-GV experiment, GV at a concentration of about 1.0×10^8 CFU/ml and each of lactic-acid bacteria at a concentration of about 1.0×10^8 CFU/ml were mixed at a ratio of 1:1 and then inoculated into a 10% horse-serum BHI broth. Each coculture experiment was conducted for 48 hr, and portions of the samples were collected initially and every 24 hr, and a viable cell count was taken through a serial dilution method and a plate-spreading method. In the anti-CA experiment, in order to measure CA alone, a YM plate medium containing ampicillin at a concentration of 100 μg/ml was used. In the anti-GV experiment, CFU was measured by distinguishing the colony forms between GV and lactic-acid bacteria using a 5% rabbit blood BHI plate medium.

[10] = system: Gardnerella vaginalis KCTC5096 (GV); test: Disinfection power through coculture; type: cell-based; conditions: coculture 1:1, at 24 hr
Protocol: as §2

[11] = system: IL-6 in mouse macrophage cell line RAW264.7; test: IL-6 ELISA, RAW264.7 cells treated with lactic-acid bacteria lysate; type: cell-based; conditions: lysate 100 μg/ml and 500 μg/ml, 24 hr
Protocol: In order to measure the immunological effects of K2, K6 and K8 lactic-acid bacteria, a cytokine quantification experiment using cells was performed. The cells that were used were a mouse macrophage cell line RAW264.7, and the medium used for each cell experiment was a Gibco® Dulbecco's Modified Eagle Medium (DMEM, Gibco, USA) supplemented with 10% fetal bovine serum (Gibco, USA) and 1% penicillin/streptomycin cocktail (Sigma-Aldrich, Germany). RAW264.7 cells cultured at about 80-90% confluency before material treatment were recovered and seeded in an amount of 1×10^6 cells per well of a 24-well plate. After seeding, culture was carried out in an environment of 37° C. and 5% CO2 for 24 hr in order to realize attachment to the 24-well plate and stabilization thereof. Each well was treated with the lactic-acid bacteria lysate at concentrations of 100 μg/ml and 500 μg/ml, and 1 μg/ml of lipopolysaccharide (LPS, Sigma-Aldrich, Germany) was used as a positive control, and an experimental group not treated with any material was used as a negative control. The cells were cultured at 37° C. and 5% CO2 for 24 hr after material treatment, and the cell culture solution was recovered, followed by enzyme-linked immunosorbent assay (ELISA) for IL-6 and TNF-α. Measurement was performed for IL-6 using a Mouse IL-6 Quantikine ELISA Kit (R&D systems, USA) and for TNF-α using a Mouse TNF-alpha Quantikine ELISA Kit (R&D systems, USA).

[12] = Ability to produce hydrogen peroxide (tetramethylbenzidine MRS agar); conditions: anaerobic, 37° C., about 48-72 hr, color change after exposure to air
Protocol: For the ability to produce hydrogen peroxide as the function of each of the lactic-acid bacteria, an agar medium was prepared by adding 0.25 mg/ml of tetramethylbenzidine (Sigma-Aldrich, Germany) and […] to MRS (McGroarty et al., 1992). Here, the additives were added at about 50° C. after autoclaving of the MRS agar. Each of the lactic-acid bacteria was inoculated into the completely hardened test agar medium, placed in an anaerobic jar, and cultured at 37° C. for about 48-72 hr. After culture, the lactic-acid bacteria were taken out of the anaerobic jar and exposed to air, and the colony and the surrounding color change were observed.

Substance | bile salt hydrolase (BSH) activity [1] | diameter of the clear zone SA [2] [mm] | diameter of the clear zone CS [3] [mm] | diameter of the clear zone EC [4] [mm] | diameter of the clear zone LM [5] [mm] | diameter of the clear zone SM [6] [mm] | diameter of the clear zone SS [7] [mm] | diameter of the clear zone PA [8] [mm] | disinfection power on CA [9] [%] | CA in coculture [9] | disinfection power on GV [10] [%] | IL-6 production compared to the control [11] | ability to produce hydrogen peroxide [12]
Lactobacillus plantarum ATG-K2 [Lb. plantarum ATG-K2] | exhibited BSH activity | 5.00 ± 0.18 | 6.50 ± 0.18 | 3.38 ± 0.21 | 5.50 ± 0.18 | 4.75 ± 0.28 | 4.13 ± 0.11 | 3.75 ± 0.13 | 99.03 | completely disappeared | 87.37 | induced | produced hydrogen peroxide
Lactobacillus plantarum ATG-K6 [Lb. plantarum ATG-K6] | exhibited BSH activity | 4.88 ± 0.21 | 6.13 ± 0.11 | 3.50 ± 0.18 | 4.75 ± 0.13 | 4.13 ± 0.11 | 3.13 ± 0.11 | 4.00 ± 0.18 | 99.49 | completely disappeared | 92.50 | induced | produced hydrogen peroxide
Lactobacillus plantarum ATG-K8 [Lb. plantarum ATG-K8] | exhibited BSH activity | 4.25 ± 0.13 | 5.88 ± 0.11 | 3.50 ± 0.18 | 5.18 ± 0.21 | 3.88 ± 0.11 | 4.00 ± 0.18 | 3.88 ± 0.11 | 99.53 | completely disappeared | 93.71 | induced | produced hydrogen peroxide
